Measured values: patent US20240158418A1 (C4 Therapeutics, Inc., priority 2021, published 2024)

Tests used:
[1] = test system: BaF3 cells expressing EGFR L858R-L792H; assay: Ba/F3 EGFR cell viability (CellTiter-Glo), L858R-L792H; assay type: cell-based; conditions: Mus musculus, read-out: CTGlo (GI50)
Text: RPMI 1640 media, cell culture flasks, and 384-well microplates were purchased from VWR (Radnor, PA, USA). Fetal bovine serum (FBS) was purchased from Life Technologies (Carlsbad, CA, USA) and CellTiter-Glo® was purchased from Promega (Madison, WI, USA). The Ba/F3 parental cell line was purchased from CrownBio (Santa Clara, CA). BaF3 cell lines ectopically expressing the EGFR mutations L858R, L858R-T790M, L858R-C797S, and L858R-T790M-C797S were purchased from CrownBio and EGFR mutations L858R-L718Q, L858R-T790M-L718Q, L858R-L792H, and L858R-T790M-L792H, were purchased from Signosis (Santa Clara, CA).
Cell viability was assessed based on the quantification of ATP using the CellTiter-Glo® assay (Promega, Madison, WI, USA). To determine the effect of compounds on cell viability, all Ba/F3 cell lines were plated at a cell density of 2000 cells/well in 384-well plates using RPMI 1640+10% FBS and treated with compounds of interest using a 10-point half-log dilution series in duplicate for 72 hours, with the highest dose set at […]. CellTiter-Glo® reagent was then added and luminescence signals were measured using an EnVision™ Multimode plate reader (Perkin Elmer, Santa Clara, CA). For data normalization, cells untreated with the test compounds at Time=72 hours were set to 100% (equivalent to maximal cell growth after 72 hours); cells untreated with the test compounds at Time=0 hours were set to 0% (equivalent to cytostasis); and media-only wells were set to −100% (equivalent to complete cytotoxicity). % Viability was determined by normalizing the signal with positive and DMSO treated negative controls on the same microtiter plate. The half-maximal inhibition of cell growth (GI50) is computed from where the fitted curve crosses 50% while the half-maximal lethal dose (LD50) is computed from where the fitted curve crosses −50%.

[2] = test system: NCI-H1975 L858R-T790M NSCLC xenograft tumors; assay: NCI-H1975 NSCLC xenograft efficacy; assay type: in vivo, female BALB/c nude mice
Method: For the NCI-H1975 cells, the xenograft study was conducted in female BALB/c nude mice bearing NCI-H1975 NSCLC tumors. Female nude mice were inoculated subcutaneously in the right flank with 5×10^6 tumors cells in 0.1 mL of PBS. Tumor volume was measured twice weekly in two dimensions using calipers, and volume (mm^3) was calculated using the formula: V=0.5 a×b^2 where a and b are the long and short diameters of the tumor in mm, respectively.
Body weight and MTV were measured on a 2× weekly schedule. Statistical analysis was performed using a one-way ANOVA. Data are expressed as MTV±SEM.

NCI-H1975 cells = assay: Global proteomics (TMT), NCI-H1975; assay type: cell-based, human
Method: Each cell line was treated in duplicate with either DMSO or Compound 1 (final concentration 300 nM) for 6 hours in an incubator at 37° C. with 5% CO2. After 6 hour incubation, cells were harvested, washed twice with PBS, and snap frozen in liquid nitrogen. Samples were re-suspended in lysis buffer [8 M urea, 50 mM HEPS (pH 8.5), 50 mM NaCl, 1× protease inhibitor cocktail] and lysed by sonication at 4° C. with 85% amplitude in a pulse setting with 30 seconds on and 30 seconds off for a total sonication time of 5 minutes. Lysates were centrifuged at maximum speed for 10 minutes at 4° C. and the supernatant collected, reduced for 1 hour at room temperature with 5 mM TCEP, and the cysteine residues were then alkylated with 15 mM iodoacetamide (room temperature, in dark, 30 minutes). Protein content was extracted by methanol-chloroform precipitation and subsequent ice-cold acetone washes. Protein pellets were resuspended in 8 M urea, 50 mM HEPES (pH 8.5) buffer and protein concentrations were measured by BCA assay. […]
6 μL of each sample was separated by reversed phase chromatography using an EASY-Spray C18 column (2 μm particle size, 500 mm length×75 μm ID) mounted in an EASY-nLC 1200 LC pump coupled to an Orbitrap Fusion Lumos Tribid mass spectrometer. […] TMT reporter ion intensities were quantified by extracting the signal-to-noise ratio for each. […]

| Structure (SMILES) | GI50 [1] [nM] | efficacy on NCI-H1975 tumor volume ([2]; 20, 50 and 100 mg/kg/day PO BID, 14 days) | tumor regression ([2]; NCI-H1975 mouse xenograft model, oral) | degradation selectivity for mutant EGFR-L858R over non-EGFR proteins (NCI-H1975 cells) |
| --- | --- | --- | --- | --- |
| O=C1CC[C@H](Nc2ccc(N3CCC(O)(CC(=O)N4CC5(C4)CN(c4ccc(-c6cc(F)c7c(c6)C(=O)N(C(C(=O)Nc6nccs6)c6ncn8c6CCC8)C7)cc4)C5)CC3)c(F)c2)C(=O)N1 (stereo partly drawn) [Compound 1, 2-(6,7-dihydro-5H-pyrrolo[1,2-c]imidazol-1-yl)-2-[6-[4-[2-[2-[1-[4-[[(3S)-2,6-dioxo-3-piperidyl]amino]-2-fluoro-phenyl]-4-hydroxy-4-piperidyl]acetyl]-2,6-diazaspiro[3.3]heptan-6-yl]phenyl]-4-fluoro-1-oxo-isoindolin-2-yl]-N-thiazol-2-yl-acetamide] | 9 | reduced tumor volume | up to 90% | highly selective |
| Cn1nc(N2CCC(=O)NC2=O)c2ccc([C@H]3CCN(CC(=O)N4CC5(C4)CN(c4ccc(-c6cc(F)c7c(c6)C(=O)N(C(C(=O)Nc6nccs6)c6ncn8c6CCC8)C7)cc4)C5)CC3(F)F)cc21 (stereo partly drawn) [Compound 2, 2-(6,7-dihydro-5H-pyrrolo[1,2-c]imidazol-1-yl)-2-[6-[4-[2-[2-[(4R)-4-[3-(2,4-dioxohexahydropyrimidin-1-yl)-1-methyl-indazol-6-yl]-3,3-difluoro-1-piperidyl]acetyl]-2,6-diazaspiro[3.3]heptan-6-yl]phenyl]-4-fluoro-1-oxo-isoindolin-2-yl]-N-thiazol-2-yl-acetamide] | 4 |  |  |  |
